Active and inactive are the calls of the source. The calls are words filed in the database; no cut-off is given here.
What was measured:
[1] = biological target: Tyrosine-protein kinase BTK (Homo sapiens, UniProt Q06187); experiment: Inhibition of BTK in anti-IgM stimulated human MOLM13 cells assessed as decrease in PLCgamma2 phosphorylation at Y1217 at 100 to 1000 nM after 4 hrs by chemiluminescence assay
Ramos = experiment: Induction of apoptosis in human Ramos cells assessed as PARP cleavage up to 10 uM after 48 hrs by immunoblot method; type: functional, cell-based

Tyrosine-protein kinase BTK, sequence (Q06187 whole entry): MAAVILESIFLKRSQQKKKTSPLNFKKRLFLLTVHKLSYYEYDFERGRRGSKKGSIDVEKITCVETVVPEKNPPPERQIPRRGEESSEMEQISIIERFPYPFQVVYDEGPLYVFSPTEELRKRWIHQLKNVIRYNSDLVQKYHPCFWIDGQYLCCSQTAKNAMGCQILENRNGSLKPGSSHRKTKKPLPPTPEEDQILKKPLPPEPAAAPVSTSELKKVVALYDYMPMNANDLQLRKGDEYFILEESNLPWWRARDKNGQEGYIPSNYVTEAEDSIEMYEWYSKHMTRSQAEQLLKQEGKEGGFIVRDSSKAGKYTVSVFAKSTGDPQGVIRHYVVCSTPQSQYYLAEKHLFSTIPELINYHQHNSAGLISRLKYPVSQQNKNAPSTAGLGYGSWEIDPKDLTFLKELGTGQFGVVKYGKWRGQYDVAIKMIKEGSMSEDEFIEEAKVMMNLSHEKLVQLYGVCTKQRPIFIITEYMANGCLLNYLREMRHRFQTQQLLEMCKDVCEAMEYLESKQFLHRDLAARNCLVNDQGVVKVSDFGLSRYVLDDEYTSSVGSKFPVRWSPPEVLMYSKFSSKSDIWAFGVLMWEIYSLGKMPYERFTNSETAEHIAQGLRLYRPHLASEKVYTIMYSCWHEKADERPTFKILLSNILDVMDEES

inhibition [1]: inactive
SMILES: C=CC(=O)Nc1cc(-n2c(=O)ccc3cnc4ccc(-n5cccn5)cc4c32)ccc1C
Activity (Ramos): Active

Source: ChEMBL document CHEMBL4130348, “Structure-activity relationship investigation for benzonaphthyridinone derivatives as novel potent Bruton's tyrosine kinase (BTK) irreversible inhibitors” (Eur J Med Chem, 2017)
